# In patent publication US20070196510A1, “Method for treating resistant hypertension” (priority 2006, published 2007):
# Values joined by “and” are separate entries in the source; they are usually repeats but may differ in a detail not shown here. Identical values can stand only once. “Also recorded” adds a separate entry of the source.
# How the values were obtained:
# [1] = test system: patients with resistant hypertension; experiment: Randomized, double-blind, placebo-controlled dose-titration study: sitting blood pressure by standard sphygmomanometry; type: in vivo, human; settings: for patients achieving SBP goal, % / patients achieving SBP goal, responders n: n = 76; for placebo-corrected change from baseline in trough sitting SBP: post-hoc
# Experimental: In this randomized, double-blind, placebo-controlled, dose-titration study, 115 patients with resistant hypertension as defined by JNC 7 guidelines were randomized 2:1 to receive escalating doses of darusentan (10, 50, 100, 150 and 300 mg) or placebo once daily for 10 weeks. Darusentan dose was increased every 2 weeks.
# Patients (35 to 85 years of age) with resistant hypertension as defined by the JNC 7 guidelines and who were treated with and adhered to full doses of JNC 7 recommended antihypertensives, including a diuretic and two or more antihypertensive medications from different drug classes, defined as (a) ACE inhibitors and angiotensin II receptor blockers, (b) beta-adrenergic receptor blockers, and (c) calcium channel blockers, were eligible to participate in the study. Patients also were required to have an estimated glomerular filtration rate (GFR)≧30 mL/min/1.73 m^2 during the screening period. Women of childbearing potential were required to have a negative serum pregnancy test at the screening visit and a negative urine pregnancy test at baseline, and they must have agreed to use a reliable double-barrier method of contraception throughout the study and for at least 4 weeks after the last study visit. Patients with an average sitting SBP≧180 mmHg, DBP≧110 mmHg, hemoglobin A1c>10%, hemoglobin concentration<10 g/dL, hematocrit<30%, serum thyroid stimulating hormone concentration>1.5× the upper limit of normal (ULN), or serum alanine aminotransferase (ALT) or aspartate aminotransferase (AST)>2×ULN during the screening period were excluded from the study. […] All patients provided written informed consent.
# In this randomized, double-blind, placebo-controlled, dose-titration study, patients were randomized 2:1 to receive escalating doses of darusentan or placebo once daily in the morning for 10 weeks after completing a 2-week placebo run-in period (FIG. 1). Darusentan was initiated at a dose of 10 mg/day and escalated every 2 weeks at doses of 50, 100 and 150 mg/day until reaching a maximum of 300 mg/day. […] Patients were withdrawn from the study if a subsequent dose reduction was required. After completion of the 10-week treatment period, patients were withdrawn from study medication over a maximum of 2 weeks. This study was approved by an Institutional Review Board/Independent Ethics Committee and conducted in accordance with the principles of Good Clinical Practices and the revised Declaration of Helsinki.
# (§1) Co-primary efficacy endpoints were the changes from baseline through weeks 8 and 10 (i.e., doses of 150 and 300 mg) in trough sitting SBP. Blood pressure was measured at every study visit (baseline and weeks 2, 4, 6, 8 and 10) using standard sphygmomanometry. Secondary variables included 24-hour SBP as measured by ambulatory blood pressure monitoring (ABPM), percentage of patients who achieved SBP goal, trough sitting DBP, and urinary albumin to creatinine ratio. Ambulatory blood pressure monitoring was recorded once before randomization and repeated during the 24 hours immediately preceding the week 10 study visit. Urine samples for determination of albumin to creatinine ratio were collected at screening, baseline and week 10.
# A nonlinear mixed effect model was used for the analysis of change in blood pressure, with comorbidity status as a covariate. This model used all observed blood pressure measurements with no imputation for missing values. Linear contrast statements were used to test the slope through a given time point to test the effect of the dose administered on that week. Estimates of treatment effect were obtained via least square means. Response rates were compared with logistic regression models at each blood pressure measurement with comorbidity status as a covariate; missing values were imputed with last observation carried forward for these models. Safety summaries include all patients who received ≧1 dose of blinded study medication. […]
# [2] = test system: patients with moderate hypertension; settings: 10 to 100 mg/day, no other antihypertensive drugs; cited from earlier work
# [3] = test system: patients with resistant hypertension; experiment: Same clinical study: urinary albumin to creatinine ratio; type: in vivo, human
# Experimental: as §1
# [4] = test system: patients with resistant hypertension; experiment: Same clinical study: 24-hour ambulatory blood pressure monitoring (ABPM); type: in vivo, human
# Experimental: as §1
# (§2) A nonlinear mixed effect model was used for the analysis of change in blood pressure, with comorbidity status as a covariate. This model used all observed blood pressure measurements with no imputation for missing values. Linear contrast statements were used to test the slope through a given time point to test the effect of the dose administered on that week. Estimates of treatment effect were obtained via least square means. Response rates were compared with logistic regression models at each blood pressure measurement with comorbidity status as a covariate; missing values were imputed with last observation carried forward for these models. Safety summaries include all patients who received ≧1 dose of blinded study medication.
# In this randomized, double-blind, multi-center study, subjects underwent a 2-week placebo run-in, followed by 2:1 randomization to darusentan or placebo once daily for 10 weeks. Subjects were initiated on 10 mg of study drug and underwent dose-escalation every 2 weeks through doses of 50, 100 and 150 mg until a maximum dose of 300 mg was achieved. Change from baseline to week 10 in 24-hour ambulatory blood pressure (ABP) was a secondary efficacy endpoint. All available ABP data were included in the analyses (observed population).
# [5] = test system: patients with resistant hypertension; experiment: Same clinical study: safety and tolerability assessments; type: in vivo, human
# Experimental: Physical examinations, vital sign measurements, clinical chemistry and hematologic laboratory tests, and electrocardiography were performed at the screening visit and periodically throughout the study. Blood samples were obtained at baseline and at weeks 4 and 10 during study drug treatment to monitor liver function. Additional blood samples were drawn from male patients at baseline and week 10 to assess follicle stimulating hormone, inhibin B, luteinizing hormone and testosterone levels. Male fertility was assessed by analysis of semen samples obtained within 2 weeks before baseline and within 2 weeks before week 10. Adverse events were monitored throughout the study.
# as §2
compound,measurement,setting,value
"COc1cc(OC)nc(O[C@H](C(=O)O)C(OC)(c2ccccc2)c2ccccc2)n1 [Darusentan, (+)-(S)-2-[(4,6-dimethoxy-2-pyrimidinyl)oxy]-3-methoxy-3,3-diphenylpropionic acid]",sitting and standing blood pressure during withdrawal,"[1]; 2-week withdrawal period after week 10, no significant difference vs placebo",increased
same,dose dependence of improvements in trough sitting SBP and DBP,"[1]; 10 to 300 mg once daily, escalated every 2 weeks",dose dependent
same,reduction in peak sitting DBP,[1]; by week 10,8.2 mmHg
same,reduction in peak sitting SBP,"[1]; by week 10, placebo 9.9",17.1 mmHg
same,average trough sitting DBP at end of treatment,"[1]; study end (week 10), baseline 80.6",73.9 mmHg
same,average trough sitting SBP at end of treatment,"[1]; study end (week 10), baseline 146.3",132.6 mmHg
same,"patients achieving SBP goal, %",[1]; week 2 (10 mg),30.3%
same,"patients achieving SBP goal, responders n",[1]; week 2 (10 mg),23
same,"placebo-adjusted mean trough sitting DBP, change from baseline",[1]; week 4 (50 mg dose),−4.9 mmHg
same,"patients achieving SBP goal, %",[1]; week 4 (50 mg),47.4%
same,"patients achieving SBP goal, responders n",[1]; week 4 (50 mg),36
same,"patients achieving SBP goal, %",[1]; week 6 (100 mg),44.7%
same,"patients achieving SBP goal, responders n",[1]; week 6 (100 mg),34
same,"change from baseline in mean trough sitting SBP, difference between groups","[1]; week 8 (150 mg dose), vs placebo",not statistically significant
same,"patients achieving SBP goal, %",[1]; week 8 (150 mg),42.1%
same,"patients achieving SBP goal, responders n",[1]; week 8 (150 mg),32
same,"placebo-adjusted mean trough sitting DBP, change from baseline","[1]; week 10 (300 mg dose), add-on therapy",−5.8 mmHg and −5.8±2.3 mmHg
same,"placebo-adjusted mean trough sitting SBP, change from baseline","[1]; week 10 (300 mg dose), oral once daily, add-on to >=3 full-dose antihypertensives incl. diuretic",−11.6 mmHg and −11.6±3.3 mmHg
same,"patients achieving SBP goal, %","[1]; week 10 (300 mg), JNC 7 goal",49% and 48.7%
same,"patients achieving SBP goal, responders n",[1]; week 10 (300 mg),37
same,placebo-corrected change from baseline in trough sitting SBP,"[1]; week 10 (300 mg), subjects on >=4 antihypertensive drugs",−12.71 mmHg
same,placebo-corrected change from baseline in trough sitting SBP,"[1]; week 10 (300 mg), subjects on exactly 3 antihypertensive drugs",−9.39 mmHg
same,subjects with decrease in SBP of at least 20 mmHg,"[1]; week 10, post-hoc, placebo 26%",about 46%
same,subjects with change from baseline of at least 10 mmHg for SBP,"[1]; week 10, post-hoc, placebo 46%",approximately 64%
same,subjects achieving SBP goal or a decrease in SBP of at least 10 mmHg,"[1]; week 10, post-hoc, placebo 49%",71%
same,subjects achieving SBP goal or a decrease in SBP of at least 10 mmHg,"[1]; week 10, subjects on >=4 antihypertensive drugs, placebo 38%",66%
same,subjects achieving SBP goal or a decrease in SBP of at least 10 mmHg,"[1]; week 10, subjects on exactly 3 antihypertensive drugs, placebo 57%",76%
same,effect on SBP and DBP by comparison with placebo,[2],significantly reduce SBP and DBP
same,geometric mean albumin to creatinine ratio at week 10,"[3]; all observed patients, n 65, baseline 12.6",9.4 mg/g
same,decrease from baseline in geometric mean urinary albumin to creatinine ratio,"[3]; all observed patients, placebo increased 6.2%",25.3%
same,geometric mean albumin to creatinine ratio at week 10,"[3]; baseline ratio >30 mg/g, n 12, baseline 145.4",73.6 mg/g
same,geometric mean albumin to creatinine ratio at week 10,"[3]; baseline ratio ≦30 mg/g, n 53, baseline 7.2",5.9 mg/g
same,"albumin to creatinine ratio, % change from baseline, mean (SE)","[3]; week 10, all observed patients, n 65",−25.3 (8.9) %
same,"albumin to creatinine ratio, % change from baseline, mean (SE)","[3]; week 10, baseline ratio >30 mg/g, n 12",−49.4 (23.6) %
same,"albumin to creatinine ratio, % change from baseline, mean (SE)","[3]; week 10, baseline ratio ≦30 mg/g, n 53",−18.4 (8.3) %
same,placebo-adjusted reduction in mean 24-hour diastolic ABP,"[4]; 300 mg, week 10",7.2±1.6 mmHg
same,"placebo-adjusted 24-hour ambulatory DBP, change from baseline",[4]; ABPM at week 10,−7.2 mmHg and −7.2±1.6 mmHg
same,"placebo-adjusted 24-hour ambulatory SBP, change from baseline",[4]; ABPM at week 10,−9.2 mmHg and −9.2±2.2 mmHg
same,blood pressure reduction over the 24-hour monitoring period,"[4]; ABPM week 10, once daily dosing",maintained throughout the 24-hour monitoring period; also recorded: maintained over 24 hours; also recorded: remained consistently lower throughout the dosing interval
same,improvement in placebo-adjusted diurnal SBP,"[4]; after 10 weeks, post-hoc analysis",8.7 mmHg
same,placebo-adjusted change from baseline in mean ABPM-determined nocturnal DBP,[4]; week 10,−5.9 mm Hg
same,placebo-adjusted change from baseline in mean ABPM-determined nocturnal SBP,[4]; week 10,−9.9 mm Hg
same,decrease in day-time SBP,"[4]; week 10, placebo 2.2±2.4",10.9±1.4 mmHg
same,improvement in peak DBP as recorded by ABPM,"[4]; week 10, placebo 2.3",9.2 mmHg
same,decrease in night-time SBP,"[4]; week 10, placebo 3.8±2.7",11.9±1.6 mmHg
same,improvement in peak SBP as recorded by ABPM,"[4]; week 10, placebo 6.0",14.1 mmHg
same,Day/night SBP ratio,"[4]; week 10, placebo 6.8%",9.5%
same,overall tolerability,"[5]; 10 to 300 mg once daily for 10 weeks, add-on therapy",generally safe and well tolerated
same,decreases in hematocrit reported as adverse events,[5]; all events mild,2 patients
same,decreases in hemoglobin reported as adverse events,[5]; all events mild,2 patients
same,"mean concentrations of ALT, AST, and γ-glutamyltransferase",[5]; both groups,decreased slightly from baseline
same,number of serious adverse events reported,"[5]; darusentan group, n = 76",Five
same,patients reporting serious adverse events,"[5]; darusentan group, n = 76",4 patients
same,patients who discontinued the study because of an adverse event,"[5]; darusentan group, n = 76",4 patients
same,cases of severe edema reported,"[5]; human, in vivo",one
same,deaths during the course of the study,"[5]; human, in vivo",No patients died
same,effects on heart rate or liver enzyme levels,"[5]; human, in vivo",no clinically relevant effects
same,intensity of peripheral edema,"[5]; human, in vivo",largely mild to moderate
same,patients able to successfully escalate study medication dose to 300 mg/day,"[5]; human, in vivo",78%
same,patients with elevations in ALT or AST >2×ULN,"[5]; human, in vivo",no patients; also recorded: no drug-related serious adverse events or elevations in serum aminotransferase concentrations>2×ULN
same,relation of serious adverse events to study medication,"[5]; human, in vivo",None of these events were considered to be related to study medication; also recorded: no drug-related serious adverse events
same,"Treatment-emergent adverse event: Arthralgia, patients %",[5]; n = 76,3%
same,"Treatment-emergent adverse event: Arthralgia, patients n",[5]; n = 76,2
same,"Treatment-emergent adverse event: Arthritis, patients n",[5]; n = 76,0
same,"Treatment-emergent adverse event: Diarrhea, patients %",[5]; n = 76,1 (1) %
same,"Treatment-emergent adverse event: Diarrhea, patients n",[5]; n = 76,1 (1)
same,"Treatment-emergent adverse event: Dizziness, patients %",[5]; n = 76,7%
same,"Treatment-emergent adverse event: Dizziness, patients n",[5]; n = 76,5
same,"Treatment-emergent adverse event: Gastroenteritis, patients %",[5]; n = 76,5%
same,"Treatment-emergent adverse event: Gastroenteritis, patients n",[5]; n = 76,4
same,"Treatment-emergent adverse event: Headache, patients %",[5]; n = 76,11%
same,"Treatment-emergent adverse event: Headache, patients n",[5]; n = 76,8
same,"Treatment-emergent adverse event: Nasopharyngitis, patients %",[5]; n = 76,7%
same,"Treatment-emergent adverse event: Nasopharyngitis, patients n",[5]; n = 76,5
same,"Treatment-emergent adverse event: Peripheral edema, patients %",[5]; n = 76,17%
same,"Treatment-emergent adverse event: Peripheral edema, patients n",[5]; n = 76,13
same,"Treatment-emergent adverse event: Sinusitis, patients %",[5]; n = 76,8%
same,"Treatment-emergent adverse event: Sinusitis, patients n",[5]; n = 76,6
same,"Treatment-emergent adverse event: Upper respiratory tract infection, patients %",[5]; n = 76,5%
same,"Treatment-emergent adverse event: Upper respiratory tract infection, patients n",[5]; n = 76,4
same,liver function test results,[5]; vs placebo,comparable between treatment groups
same,"heart rate, change from baseline","[5]; week 10, placebo 2.3±1.3",0.4±0.9 beats per minute
